Drawing on US12539292B2, “BRM targeting compounds and associated methods of use” (Arvinas Operations, Inc., priority 2018, dated 2026), this text covers DC50 and Dmax for 13 compounds.

Like-named read-outs stand apart in the source and are kept apart here. Where only a bound is given, the exact number is not on record here.

For the assay, the target named is T1, BRM (Homo sapiens, UniProt P51531).
T1 construct: In-Cell Western Screen of BRM Degradation in SW1573 Cells; endogenous in cells; host or cells: SW1573
In words: In-cell Western screen of BRM degradation in SW1573 cells (Dmax and DC50). Type of assay: cell-based. A digest of the protocol:
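SW1573 cells were treated overnight (18-20 hours) with compound at 0.1% final DMSO. They were then PFA-fixed, permeabilised with Triton X-100 and immunostained with 800 nm/680 nm secondary antibodies. BRM signal was quantified by LI-COR in-cell Western imaging to derive Dmax and DC50.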

Setting [1] is: target protein degradation, read-out: BRM DC50.
[2] abbreviates: BRM degradation, SW1573 cells, Table 2D, read-out: **Dmax (%) (% degraded).
The mark [3] stands for this setting: BRM degradation, SW1573 cells, Table 2D, read-out: *DC50.
The mark [4] stands for this setting: BRM degradation, SW1573 cells, read-out: DC50.

T1 sequence (P51531 whole entry): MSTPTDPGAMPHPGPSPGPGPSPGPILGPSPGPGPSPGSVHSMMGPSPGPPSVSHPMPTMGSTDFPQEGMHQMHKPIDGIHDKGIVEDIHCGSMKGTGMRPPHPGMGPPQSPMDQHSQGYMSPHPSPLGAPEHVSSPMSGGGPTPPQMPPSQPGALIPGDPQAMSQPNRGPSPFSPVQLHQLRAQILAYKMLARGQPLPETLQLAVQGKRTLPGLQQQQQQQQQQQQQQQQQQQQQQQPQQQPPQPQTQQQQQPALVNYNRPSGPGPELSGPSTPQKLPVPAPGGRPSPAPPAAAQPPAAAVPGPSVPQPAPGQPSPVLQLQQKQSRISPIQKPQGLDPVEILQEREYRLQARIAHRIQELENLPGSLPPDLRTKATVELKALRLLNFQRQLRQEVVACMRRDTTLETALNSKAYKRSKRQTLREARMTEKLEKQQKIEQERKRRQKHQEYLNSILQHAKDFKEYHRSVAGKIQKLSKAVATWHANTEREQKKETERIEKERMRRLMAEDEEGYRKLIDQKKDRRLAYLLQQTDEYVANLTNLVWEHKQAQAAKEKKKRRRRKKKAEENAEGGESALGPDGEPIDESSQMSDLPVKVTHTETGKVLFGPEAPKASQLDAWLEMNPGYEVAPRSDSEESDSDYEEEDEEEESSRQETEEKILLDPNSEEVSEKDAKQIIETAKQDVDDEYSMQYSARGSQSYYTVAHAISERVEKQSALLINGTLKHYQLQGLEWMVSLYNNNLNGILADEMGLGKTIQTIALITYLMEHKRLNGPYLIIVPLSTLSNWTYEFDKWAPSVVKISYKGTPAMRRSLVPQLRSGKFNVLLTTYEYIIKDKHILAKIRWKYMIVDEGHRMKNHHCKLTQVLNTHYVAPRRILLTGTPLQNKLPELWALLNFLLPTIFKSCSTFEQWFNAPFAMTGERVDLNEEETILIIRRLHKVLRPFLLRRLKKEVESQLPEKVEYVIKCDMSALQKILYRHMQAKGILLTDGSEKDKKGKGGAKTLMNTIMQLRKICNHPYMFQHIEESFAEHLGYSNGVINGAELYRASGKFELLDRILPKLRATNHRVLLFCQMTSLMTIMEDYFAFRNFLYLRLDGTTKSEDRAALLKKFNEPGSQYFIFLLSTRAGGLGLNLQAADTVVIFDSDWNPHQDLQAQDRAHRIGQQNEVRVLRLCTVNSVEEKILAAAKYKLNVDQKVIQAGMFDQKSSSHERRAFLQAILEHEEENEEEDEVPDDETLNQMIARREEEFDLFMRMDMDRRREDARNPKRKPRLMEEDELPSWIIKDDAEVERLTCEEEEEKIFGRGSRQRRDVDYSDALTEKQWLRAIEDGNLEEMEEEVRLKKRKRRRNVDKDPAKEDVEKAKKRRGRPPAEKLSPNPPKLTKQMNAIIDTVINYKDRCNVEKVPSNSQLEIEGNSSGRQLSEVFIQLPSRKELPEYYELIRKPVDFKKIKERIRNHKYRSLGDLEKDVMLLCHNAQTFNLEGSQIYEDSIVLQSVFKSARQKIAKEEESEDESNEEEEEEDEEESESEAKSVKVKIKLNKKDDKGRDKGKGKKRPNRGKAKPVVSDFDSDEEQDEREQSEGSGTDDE

For `Cc1ncsc1-c1ccc([C@H](C)NC(=O)[C@@H]2C[C@@H](O)CN2C(=O)[C@@H](c2cc(OCCN3CCC(O[C@H]4C[C@H](Oc5cc(N6C7CCC6CN(c6ccn8cc(-c9ccccc9O)nc8n6)C7)ccn5)C4)CC3)no2)C(C)C)cc1` [compound 489, (2S,4R)-4-hydroxy-1-((2R)-2-(3-(2-(4-((1r,3R)-3-((4-(3-(2-(2-hydroxyphenyl)imidazo[1,2-a]pyrimidin-7-yl)-3,8-diazabicyclo[3.2.1]octan-8-yl)pyridin-2-yl)oxy)cyclobutoxy)piperidin-1-yl)ethoxy)isoxazol-5-yl)-3-methylbutanoyl)-N-((S)-1-(4-(4-methylthiazol-5-yl)phenyl)ethyl)pyrrolidine-2-carboxamide], the 50% degradation concentration (DC50) under setting [1] is greater than 30 nM.

Consider `Cc1ncsc1-c1ccc([C@H](C)NC(=O)[C@@H]2C[C@@H](O)CN2C(=O)[C@@H](c2cc(N3CCC(OC4CCN(CC5CC(CN6CCC([C@@H](C)n7cc(-c8cc(-c9ccccc9O)nnc8N)cn7)CC6)C5)CC4)CC3)no2)C(C)C)cc1` (single isomer, unassigned) [compound 596], for which the greatest degradation seen (Dmax) under setting [2] was greater than 75%. The DC50 under setting [3] was less than 2.5 nM.

Regarding `Cc1nccn1-c1ccc([C@H](C)NC(=O)[C@@H]2C[C@@H](O)CN2C(=O)[C@@H](c2cc(N3CCC(CN4CCC(O[C@H]5C[C@H](Oc6cc(N7C8CCC7CN(c7cc(-c9ccccc9O)nnc7N)C8)ccn6)C5)CC4)CC3)no2)C(C)C)cc1` [compound 606, (2S,4R)-1-((2S)-2-(3-(4-((4-((1r,3r)-3-((4-(3-(3-amino-6-(2-hydroxyphenyl)pyridazin-4-yl)-3,8-diazabicyclo[3.2.1]octan-8-yl)pyridin-2-yl)oxy)cyclobutoxy)piperidin-1-yl)methyl)piperidin-1-yl)isoxazol-5-yl)-3-methylbutanoyl)-4-hydroxy-N-((S)-1-(4-(2-methyl-1H-imidazol-1-yl)phenyl)ethyl)pyrrolidine-2-carboxamide], the Dmax under setting [2] was greater than 75%. Also, the DC50 under setting [3] fell in the range of 10 to 30 nM.

For `Cc1ncsc1-c1ccc([C@H](C)NC(=O)[C@@H]2C[C@@H](O)CN2C(=O)[C@@H](c2cc(N3CCC(CN4CCC(O[C@H]5C[C@H](N6CCOC7(CCN(c8cc(-c9ccccc9O)nnc8N)CC7)C6)C5)CC4)CC3)no2)C(C)C)cc1` [compound 618, (2S,4R)-1-((R)-2-(3-(4-((4-((1r,3r)-3-(9-(3-amino-6-(2-hydroxyphenyl)pyridazin-4-yl)-1-oxa-4,9-diazaspiro[5.5]undecan-4-yl)cyclobutoxy)piperidin-1-yl)methyl)piperidin-1-yl)isoxazol-5-yl)-3-methylbutanoyl)-4-hydroxy-N-((S)-1-(4-(4-methylthiazol-5-yl)phenyl)ethyl)pyrrolidine-2-carboxamide], the maximal degradation (Dmax) under setting [2] is greater than 75%. Further, under setting [3], the DC50 is less than 2.5 nM.

With `Cc1ncsc1-c1ccc([C@H](C)NC(=O)[C@@H]2C[C@@H](O)CN2C(=O)[C@H](c2cc(OCCN3CCC(O[C@H]4C[C@H](Oc5cc(N6C7CCC6CN(c6cc(-c8ccccc8)nnc6N)C7)ccn5)C4)CC3)no2)C(C)C)cc1` [compound 536, (2S,4R)-1-((2S)-2-(3-(2-(4-((1r,3S)-3-((4-(3-(3-amino-6-phenylpyridazin-4-yl)-3,8-diazabicyclo[3.2.1]octan-8-yl)pyridin-2-yl)oxy)cyclobutoxy)piperidin-1-yl)ethoxy)isoxazol-5-yl)-3-methylbutanoyl)-4-hydroxy-N-((S)-1-(4-(4-methylthiazol-5-yl)phenyl)ethyl)pyrrolidine-2-carboxamide], the DC50 (BRM degradation, SW1573 cells, Table 2D) was greater than 30 nM.

As for `Cc1ncsc1-c1ccc([C@H](C)NC(=O)[C@@H]2C[C@@H](O)CN2C(=O)[C@@H](NC(=O)COCCOCCOCCCCN2CCOC3(CCN(c4cc(-c5ccccc5O)nnc4N)CC3)C2)C(C)(C)C)cc1` [compound 51, (2S,4R)-1-[(2S)-2-(2-[2-[2-(4-[9-[3-amino-6-(2-hydroxyphenyl)pyridazin-4-yl]-1-oxa-4,9-diazaspiro[5.5]undecan-4-yl]butoxy)ethoxy]ethoxy]acetamido)-3,3-dimethylbutanoyl]-4-hydroxy-N-[(1S)-1-[4-(4-methyl-1,3-thiazol-5-yl)phenyl]ethyl]pyrrolidine-2-carboxamide], the DC50 under setting [4] was in the range of 10 to 30 nM. For the same compound, where the note is “BRM degradation, SW1573 cells, when tested at the top concentration of between 0.3 and 10 μM, read-out: Dmax (%) (% degraded)”, the Dmax is greater than 75%.

For `Cc1ncsc1-c1ccc([C@H](C)NC(=O)[C@@H]2C[C@@H](O)CN2C(=O)[C@@H](c2cc(OCCC3CCN(C(=O)[C@H]4C[C@H](CN5CCC(n6cc(-c7cc(-c8ccccc8O)nnc7N)cn6)CC5)C4)CC3)no2)C(C)C)cc1` [compound 468, (2S,4R)-1-((R)-2-(3-(2-(1-((1r,3R)-3-((4-(4-(3-amino-6-(2-hydroxyphenyl)pyridazin-4-yl)-1H-pyrazol-1-yl)piperidin-1-yl)methyl)cyclobutane-1-carbonyl)piperidin-4-yl)ethoxy)isoxazol-5-yl)-3-methylbutanoyl)-4-hydroxy-N-((S)-1-(4-(4-methylthiazol-5-yl)phenyl)ethyl)pyrrolidine-2-carboxamide], the DC50 under setting [1] is greater than 30 nM.

Take `Cc1ncsc1-c1ccc([C@H](C)NC(=O)[C@@H]2C[C@@H](O)CN2C(=O)[C@@H](c2cc(OCCN[C@H]3CC[C@H](O[C@H]4C[C@H](Oc5cc(N6C7CCC6CN(c6cc(-c8ccccc8O)nnc6N)C7)ccn5)C4)CC3)no2)C(C)C)cn1` [compound 396, (2S,4R)-1-((2R)-2-(3-(2-(((1R,4R)-4-((1r,3R)-3-((4-(3-(3-amino-6-(2-hydroxyphenyl)pyridazin-4-yl)-3,8-diazabicyclo[3.2.1]octan-8-yl)pyridin-2-yl)oxy)cyclobutoxy)cyclohexyl)amino)ethoxy)isoxazol-5-yl)-3-methylbutanoyl)-4-hydroxy-N-((S)-1-(6-(4-methylthiazol-5-yl)pyridin-3-yl)ethyl)pyrrolidine-2-carboxamide]: where the note is “SW1573, % degraded, when tested at the top concentration of between 0.3 and 10 μM, read-out: BRM Dmax (%)”, the Dmax is greater than 75%. Moreover, the DC50 under setting [1] is 2.5 to 10 nM.

With `Cc1ncsc1-c1ccc([C@H](C)NC(=O)[C@@H]2C[C@@H](O)CN2C(=O)[C@@H](c2cc(OCCN3CCC(CCOc4cc(N5C6CCC5CN(c5cc(-c7ccccc7O)nnc5N)C6)ccn4)CC3)no2)C(C)C)cc1` [compound 554, (2S,4R)-1-((2R)-2-(3-(2-(4-(2-((4-(3-(3-amino-6-(2-hydroxyphenyl)pyridazin-4-yl)-3,8-diazabicyclo[3.2.1]octan-8-yl)pyridin-2-yl)oxy)ethyl)piperidin-1-yl)ethoxy)isoxazol-5-yl)-3-methylbutanoyl)-4-hydroxy-N-((S)-1-(4-(4-methylthiazol-5-yl)phenyl)ethyl)pyrrolidine-2-carboxamide], the greatest degradation seen (Dmax) under setting [2] was greater than 75%. The DC50 under setting [3] is less than 2.5 nM.

Consider `Cc1ncsc1-c1ccc([C@H](C)NC(=O)[C@@H]2C[C@@H](O)CN2C(=O)[C@H](c2cc(N3CCC(OC4CCN(C[C@H]5C[C@H](Oc6cc(N7C8CCC7CN(c7cc(-c9ccccc9O)nnc7N)C8)ccn6)C5)CC4)CC3)no2)C(C)C)cc1` [compound 469, (2S,4R)-1-((2S)-2-(3-(4-((1-(((1r,3r)-3-((4-(3-(3-amino-6-(2-hydroxyphenyl)pyridazin-4-yl)-3,8-diazabicyclo[3.2.1]octan-8-yl)pyridin-2-yl)oxy)cyclobutyl)methyl)piperidin-4-yl)oxy)piperidin-1-yl)isoxazol-5-yl)-3-methylbutanoyl)-4-hydroxy-N-((S)-1-(4-(4-methylthiazol-5-yl)phenyl)ethyl)pyrrolidine-2-carboxamide], for which the DC50 under setting [1] was greater than 30 nM.

Regarding `Cc1ncsc1-c1ccc([C@H](C)NC(=O)[C@@H]2C[C@@H](O)CN2C(=O)[C@H](c2cc(N3CCC(OC4CCN(CC5CC(CN6CCC([C@H](C)n7cc(-c8cc(-c9ccccc9O)nnc8N)cn7)CC6)C5)CC4)CC3)no2)C(C)C)cc1` (single isomer, unassigned) [compound 593], the Dmax under setting [2] is greater than 75%. In addition, the DC50 under setting [3] is less than 2.5 nM.

For `Cc1cc([C@H](C(=O)N2C[C@H](O)C[C@H]2C(=O)N[C@@H](C)c2ccc(-c3scnc3C)cc2)[C@H](C)COCCn2cc(-c3cc(-c4ccccc4O)nnc3N)cn2)on1` [compound 538, (2S,4R)-1-((2R,3S)-4-(2-(4-(3-amino-6-(2-hydroxyphenyl)pyridazin-4-yl)-1H-pyrazol-1-yl)ethoxy)-3-methyl-2-(3-methylisoxazol-5-yl)butanoyl)-4-hydroxy-N-((S)-1-(4-(4-methylthiazol-5-yl)phenyl)ethyl)pyrrolidine-2-carboxamide], the DC50 under setting [3] was greater than 30 nM.

On to `Cc1ncsc1-c1ccc([C@H](C)NC(=O)[C@@H]2C[C@@H](O)CN2C(=O)[C@H](c2cc(OCC#Cc3ccc(O[C@H]4C[C@H](Oc5cc(N6C7CCC6CN(c6cc(-c8ccccc8O)nnc6N)C7)ccn5)C4)cn3)no2)C(C)C)cn1` [compound 236, (2S,4R)-1-((2S)-2-(3-((3-(5-((1r,3S)-3-((4-(3-(3-amino-6-(2-hydroxyphenyl)pyridazin-4-yl)-3,8-diazabicyclo[3.2.1]octan-8-yl)pyridin-2-yl)oxy)cyclobutoxy)pyridin-2-yl)prop-2-yn-1-yl)oxy)isoxazol-5-yl)-3-methylbutanoyl)-4-hydroxy-N-((S)-1-(6-(4-methylthiazol-5-yl)pyridin-3-yl)ethyl)pyrrolidine-2-carboxamide], for which the DC50 under setting [4] was greater than 30 nM. In addition, the Dmax (BRM degradation, SW1573 cells, tested at the top concentration of between 0.3 and 10 μM, read-out: Dmax (%) (% degraded)) is greater than 75%.
